Experimental data taken from patent US20160213633A1, “METHOD OF INDUCING ANTI-GLATIRAMER ACETATE ANTIBODY RESPONSE” (Teva Pharmaceutical Industries, Ltd., priority 2015, published 2016).
Like-named read-outs stand apart in the source and are kept apart here.

Experiments:
[1] = system: anti-GA specific IgG antibodies; conditions: for average anti-GA IgG response (Screening RA %): GA treatment group, 40 mg sc three times a week, 1/500 dilution
Experimental: The screening results of the 1/500 dilution are presented as RA %.
Analysis was performed using ELISA.
Each plate should include the following samples: • System suitability Test (SST)—wells coated with purified human IgG. • SST Blank—wells coated with the blocking buffer only (w/o hIgG and human serum sample). […] To be subtracted from the NHS & PHS controls and from the human tested serum samples. • Sample 1-Sample 13—different tested serum samples. Each sample applied in two dilutions ( 1/500 and 1/1000)
All tested human serum samples of different time points from the same individual should be tested (in triplicates), if possible, in the same plate to allow comparison.
Prepare a 1.0 ug/ml dilution of hIgG coating antibody and coat the plate at 100 ul/well.
For washing, empty plate and tap out residual liquid, fill each well with 300 ul washing buffer and then invert plate to empty, tap out residual liquid onto paper towel.
For blocking, add 300 ul/well of blocking buffer to each well, seal the plate and incubate at room temperature for 1 hour, and wash the plates three times.
For sample loading, add 100 ul diluted test samples and/or control sample and/or sample buffer to each well. Seal the plate and incubate for 2 hours at room temperature, empty plate, tap out residual liquid and wash three times.
For detection antibody, prepare 1:4000 dilution of the biotinylated anti-hIgG detection antibody by diluting 2.5 ul biotinylated anti-hIgG antibody to 10 ml of blocking buffer. Prepare 10 ml biotinylated anti-human IgG detection antibody solution per plate and add 100 ul of the prepared detection antibodies to each well. Seal the plate and incubate for 1 hour at room temperature. Then empty plate, tap out residual liquid and wash five times.
For streptavidin conjugated horseradish peroxidase (HRP), prepare working dilution of the streptavidin conjugated HRP in blocking buffer. Then add 100 ul/well of the prepared streptavidin conjugated HRP solution, following shaking the plate for a few seconds. Then incubate the plate for 1 hour at room temperature in the dark, following washing five times.
For enzymatic reaction, TMB (3,3,5,5-tetramethylbenzidine peroxidase) is used. Mix equal volumes of TMB Peroxidase Substrate (Part 1) and Peroxidase Substrate Solution B in a clean glass container immediately prior to use. Dispense 100 ul of TMB solution into each well and incubate the plate for 15-30 minutes in the dark at 37° C. Stop the reaction with 100 ul stop solution per well (1N sulphuric acid) and shake the plate for a few seconds. Read the absorbance (ABS) of each well at 450 nm.
For blank subtraction, subtract the calculated average absorbance (ABS) of SST blank from average (AVG) ABS value of the SST. Subtract the calculated AVG ABS of blank from AVG ABS value of each test sample including PHS and NHS control samples. All data points that fall below 0.000 are set equal to 0.000.
To overcome plate-to-plate variability, the results are normalized by dividing the absorbance (ABS) of each test sample (including the controls) with that of the SST. This value is the Relative Absorbance (RA) ratio and is multiplied by 100 expressed in percent. These values are the reported response values of the test. The RA value is calculated according to the following equation: […]
The RA values of the normal human serum samples obtained from untreated individuals are used to calculate a cut-point value of the test. The cut-point value is used to distinguish between negative and positive human serum samples. In case that the calculated cut point value of the study is lower than the RA of the detection limit (2*Blank) of the study, the cut point is calculated as follows: […]
The results of the other dilution ( 1/1000) will be reported for monitoring, to allow semi quantitative comparison of the tested serum defined as positive.
All samples of each patient were tested on the same plate, whenever it was possible.

[2] = system: anti-GA IgG antibodies
Experimental: Sample positivity of each screen positive sample of each patient was confirmed in further testing by comparison to the confirmatory cut-point.
Unspiked and spiked samples were tested according to the method but only in 1/500 dilution.
The confirmatory cut-point factor is calculated to set the false positive rate at 1%. Reported value (RV) were the unspiked sample avg. ODA and the spiked sample avg. OD. RV were obtained from 50 naïve individuals, each measured 4 times over 2 days by 2 analysts.
Percent RA inhibition was calculated according to the following equation:
Percent inhibition=100×(1−(RA of spiked)/(RA of unspiked))

L-glutamic acid polymer with L-alanine, L-lysine and L-tyrosine, acetate (salt) [GA]
Sample Positivity ([1]; Baseline visit, RA % vs cut-point 1.4, one line per patient): Negative
Sample Positivity ([1]; Baseline, cut-point RA % of 1.4, individual patient): Negative
average anti-GA IgG response (Screening RA %) ([1]; Baseline): 0.4568 RA %
average anti-GA IgG response (Screening RA %) ([1]; Month 1): 34.75 RA %
average anti-GA IgG response (Screening RA %) ([1]; Month 3): 67.72 RA %
average anti-GA IgG response (Screening RA %) ([1]; Month 6): 39.69 RA %
average anti-GA IgG response (Screening RA %) ([1]; Month 9): 30.61 RA %
average anti-GA IgG response (Screening RA %) ([1]; Month 12): 28.94 RA %
average anti-GA IgG response (Screening RA %) ([1]; Month 18): 24.9 RA %
average anti-GA IgG response (Screening RA %) ([1]; Month 24): 23.36 RA %
Sample Positivity ([1]; Month 1, RA % vs cut-point 1.4, one line per patient): POSITIVE
Sample Positivity ([1]; Month 2 (so in the source), RA % vs cut-point 1.4, patient 537414): POSITIVE
Sample Positivity ([1]; Month 3, RA % vs cut-point 1.4, one line per patient): POSITIVE
Sample Positivity ([1]; Month 3, cut-point RA % of 1.4, individual patient): POSITIVE
Sample Positivity ([1]; Month 6, RA % vs cut-point 1.4, one line per patient): POSITIVE
Sample Positivity ([1]; Month 6, cut-point RA % of 1.4, individual patient): POSITIVE
Sample Positivity ([1]; Month 12, RA % vs cut-point 1.4, one line per patient): POSITIVE
antibody level versus baseline ([1]; about 12 months after the initial 40 mg/ml dose): higher than baseline
total anti-GA IgG levels ([1]; by month 6 of the treatment): decreased
rate of increase of antibody level ([1]; first month compared to after the first month to the third month): greater rate during the first month
non-baseline samples higher than the cut-point value (RA % of 1.4) ([1]; human, in vivo): 96.2%
antibody level after the peak versus baseline ([1]; month 24): did not reach the baseline level
Inhibition (%) ([2]; Baseline visit; one line per patient): 68.2%
Inhibition (%) ([2]; Baseline; confirmation test, spiking with GA; each line one patient): 65.5%
Inhibition (%) ([2]; Month 1; confirmation test): 63.8%
Confirmed Positivity (Yes/No) ([2]; Month 1; individual patient): YES
Inhibition (%) ([2]; Month 1 visit, individual patient): 18.7%
Inhibition (%) ([2]; Month 1 visit; individual patient): 63.2%
Confirmed Positivity (Yes/No) ([2]; Month 3; individual patient): YES
Inhibition (%) ([2]; Month 3 visit, individual patient): 47.0%
Inhibition (%) ([2]; Month 6; confirmation test): 61.1%
Confirmed Positivity (Yes/No) ([2]; Month 6; individual patient): YES
Confirmed Positivity (Yes/No) ([2]; Month 6 visit, individual patient): YES
Inhibition (%) ([2]; Month 9; confirmation test): 56.8%
Confirmed Positivity (Yes/No) ([2]; Month 9; individual patient): YES
Confirmed Positivity (Yes/No) ([2]; Month 9 visit, individual patient): YES
Inhibition (%) ([2]; Month 12; confirmation test): 58.5%
Confirmed Positivity (Yes/No) ([2]; Month 12; individual patient): YES
Confirmed Positivity (Yes/No) ([2]; Month 12 visit, individual patient): YES
Inhibition (%) ([2]; Month 18; confirmation test): 60.2%
Confirmed Positivity (Yes/No) ([2]; Month 18; individual patient): YES
Confirmed Positivity (Yes/No) ([2]; Month 18 visit, individual patient): YES
Inhibition (%) ([2]; Month 24; confirmation test): 66.8%
Inhibition (%) ([2]; Month 24; confirmation test; individual patient): 66.7%
Confirmed Positivity (Yes/No) ([2]; Month 24; individual patient): YES
Confirmed Positivity (Yes/No) ([2]; Month 24 visit, individual patient): YES
Inhibition (%) ([2]; confirmation test, individual patient, Month 1): 63.3%
Inhibition (%) ([2]; confirmation test, individual patient, Month 18): 59.5%
Inhibition (%) ([2]; confirmation test, individual patient, Month 24): 58.2%
presence of anti-GA IgG Abs in tested patients ([2]; every tested patient (262 patients)): confirmed positive
positivity of non-baseline samples verified in the confirmatory test ([2]; screen positive non-baseline samples; confirmatory cut-point […]): 99.9%
